Laboratory results as given in patent US20260207585A1, “METHODS AND COMPOSITIONS FOR THE TREATMENT OF PARKINSON'S DISEASE, HUNTINGTON'S DISEASE, AMYOTROPHIC LATERAL SCLEROSIS, AND LEARNING DISORDERS” (Cedars-Sinai Medical Center, priority 2022, published 2026).
Read-outs that look alike come from different tables or passages of the source.

Columns and labels:
AD+ mice = test: Fear conditioning test; type: in vivo
Description: The effects of single and repeated ETP69 injections in mice were tested. The experimental timeline is depicted in FIG. 5. Three parallel injection conditions were tested: a single ETP69 condition, a boosted ETP69 injection, and repeated ETP69 injections. The single injection mice received one injection of ETP69 or DMSO at Day 0. The mice that received a boosted injection received one injection of ETP69 or DMSO at day 0 and one injection at day 9. The mice that received repeated injections received 11 injections of ETP69 or DMSO at day 0 or day 9. Both wildtype and AD model (APP/PS1-transgenic) mice were tested.
The results of the Open Field Barnes Maze test indicate hippocampal-based spatial memory. FIG. 7A depicts a schematic of the Barnes Maze Test. […] The results of the fear conditioning test indicate spatial memory.

[1] = system: ionized calcium-binding adaptor molecule 1 (Iba-1); test: Iba-1 immunoreactivity (microgliosis) in cerebral cortex; type: in vivo; conditions: neurodegenerative mice
Description: The effects of ETP69 on cerebral H3K9me3 levels was tested in old mice, in both a neurodegenerative model and WT siblings. The levels of brain H3K9me3 at days 4 (short-term) and 15 (long-term) following i.p. ETP69 injection (S regimen cohorts) were measured. […] These findings indicate that a single dose of ETP69 is sufficient to sustainably reduce H3K9me3 in the brains of old WT and neurodegenerative mice. Consistent with the observations in 18-month-old mice, ETP69 mitigated neuroinflammation, including by reduced ionized calcium-binding adaptor molecule 1 (Iba-1)^+ microgliosis in neurodegenerative mice (40%, p=0.0021; FIG. 16D).

NSD2 (E1099K) = biological target: T1, NSD2 (E1099K) (Homo sapiens, UniProt O96028, E1099K); test: Methyltransferase inhibition panel: NSD2 (E1099K); type: biochemical
T1 sequence (O96028 1-1365 E1099K): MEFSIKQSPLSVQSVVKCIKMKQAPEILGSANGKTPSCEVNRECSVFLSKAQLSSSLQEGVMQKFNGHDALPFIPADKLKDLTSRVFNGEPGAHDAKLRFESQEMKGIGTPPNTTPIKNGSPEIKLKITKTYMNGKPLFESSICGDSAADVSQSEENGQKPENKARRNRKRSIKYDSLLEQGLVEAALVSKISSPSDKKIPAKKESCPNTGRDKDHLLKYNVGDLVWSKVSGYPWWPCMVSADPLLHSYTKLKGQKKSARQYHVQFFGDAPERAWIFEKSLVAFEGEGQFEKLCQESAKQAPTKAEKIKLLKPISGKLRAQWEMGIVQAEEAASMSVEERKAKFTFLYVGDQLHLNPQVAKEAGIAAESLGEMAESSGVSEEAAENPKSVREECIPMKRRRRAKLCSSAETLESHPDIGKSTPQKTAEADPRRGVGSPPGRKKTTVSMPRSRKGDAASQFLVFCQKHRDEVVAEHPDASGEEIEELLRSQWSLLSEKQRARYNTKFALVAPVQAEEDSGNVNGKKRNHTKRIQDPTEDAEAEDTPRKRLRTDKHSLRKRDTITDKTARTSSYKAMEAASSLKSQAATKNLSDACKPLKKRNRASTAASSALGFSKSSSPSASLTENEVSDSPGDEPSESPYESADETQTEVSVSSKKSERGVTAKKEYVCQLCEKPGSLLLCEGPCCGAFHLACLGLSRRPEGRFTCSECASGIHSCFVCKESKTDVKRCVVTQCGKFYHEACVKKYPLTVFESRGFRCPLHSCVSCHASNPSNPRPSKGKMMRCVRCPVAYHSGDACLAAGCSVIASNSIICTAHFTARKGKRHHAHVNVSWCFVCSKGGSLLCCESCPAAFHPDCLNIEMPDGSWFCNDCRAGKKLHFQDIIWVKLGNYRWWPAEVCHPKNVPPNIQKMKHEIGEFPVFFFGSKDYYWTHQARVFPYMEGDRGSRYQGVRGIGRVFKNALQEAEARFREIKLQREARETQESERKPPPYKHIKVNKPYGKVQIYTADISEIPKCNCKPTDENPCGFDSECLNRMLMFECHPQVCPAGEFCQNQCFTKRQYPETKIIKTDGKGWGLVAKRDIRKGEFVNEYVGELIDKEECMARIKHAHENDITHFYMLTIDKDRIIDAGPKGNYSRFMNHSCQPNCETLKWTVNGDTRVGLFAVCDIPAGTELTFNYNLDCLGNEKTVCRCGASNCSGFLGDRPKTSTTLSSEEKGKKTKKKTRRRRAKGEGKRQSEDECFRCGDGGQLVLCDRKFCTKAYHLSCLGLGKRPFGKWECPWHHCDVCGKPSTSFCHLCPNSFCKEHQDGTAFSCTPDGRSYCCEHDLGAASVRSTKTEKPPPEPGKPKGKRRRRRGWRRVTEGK
Description: (§1) The ability of ETP69 to inhibit methyltransferases was tested.

ASH1L = ASH1L (Homo sapiens, UniProt Q9NR48); test: Methyltransferase inhibition panel: ASH1L; type: biochemical
Description: as §1

[2] = NT1721 20 μM, substrate Nucleosomes 0.05 mg/mL

SMILES: CN1C(=O)[C@@]23C[C@](C)(C#N)[C@H](c4ccc5c(c4)OCO5)N2C(=O)[C@]1(C)SS3 (racemic) [ETP69, Rac-(3S,6S,7S,8aS)-6-(benzo[d][1,3]dioxol-5-yl)-2,3,7-trimethyl-1,4-dioxohexahydro-6H-3,8a-epidithiopyrrolo[1,2-a]pyrazine-7-carbonitrile]
- freezing time (AD+ mice): increased
- reduction of Iba-1+ microgliosis [1]: 40%
- remaining activity at 20 µM (NSD2 (E1099K); read-out: Enzyme % Activity (relative to DMSO controls) Data 1): 32.3%
- remaining activity at 20 µM (NSD2 (E1099K); read-out: Enzyme % Activity (relative to DMSO controls) Data 2): 32.7%
- inhibition relative to DMSO controls (NSD2 (E1099K); summary of Table 1): at least 7500
- Enzyme % Activity (relative to DMSO controls) Data 1 (ASH1L; [2]): 3.42%
- Enzyme % Activity (relative to DMSO controls) Data 2 (ASH1L; [2]): 4.17%
- inhibition relative to DMSO controls (ASH1L; summary of Table 1): at least 7500
